Where a SMILES comes first, the peptide text is derived from it. Bridges are numbered along the chain shown (N, C = ends). Where no end group is shown, it is not given here. [ ]: non-standard residue; d: D form. R8 = C=CCCCCCC[C@@](C)(N)C(=O)O; S5 = C=CCCC[C@](C)(N)C(=O)O
Experiments:
[1] = test system: N-terminal and C-terminal V3 loop peptides; experiment: ITC binding to N-terminal and C-terminal V3 loop peptides; set-up: species or system HIV-1; conditions: overlapping 15-mer V3 peptides
Method: (§1) We also used ITC to measure the binding affinity of the stapled peptides to full-length cyclic V3 loop peptide.
(§2) Full-length V3 peptide (Cat# 1840), cyclic V3 peptide (Cat# 1837) and 15-mer overlapping V3 peptides (Cat# 1832, 6282, 6283, 6284, 6285, 6287, 6288, 6289, 6290 and 6291, for amino acid sequence see HIV-1 Subtype B (MN) Env Peptides - Complete Set Cat# 6451) were obtained through the NIH ARP.
(§3) For forward titration, 90 μM full-length V3 peptide, full-length cyclic V3 peptide or 90 μM 15-mer V3 peptides were titrated into 4.5 μM of stapled or linear peptides. Reference measurements were performed by titrating 90 μM full-length V3 peptide, full-length cyclic V3 peptide or 15-mer V3 peptide into buffer without peptide. For reverse titration, 90 μM stapled peptide was titrated into 4.5 μM full-length V3 peptide, full-length cyclic V3 peptide or […]. Reference measurements were performed by titrating 90 μM stapled peptide into buffer without peptide.

HIV-1 pNL4-3 (WT) = format: cell-based
HIV-1 pNL4-3 = experiment: Virus assembly and release assay, Gag processing; format: cell-based; conditions: 293T cells transfected with pNL4-3, peptide for 16–20 h, ratio of Pr55Gag to p24
Method: This inhibition was specific to HIV-1 as the release of another lentivirus, equine infectious anemia virus (EIAV), was not inhibited. In this study we investigated whether i,i + 7 stapled CAI-derived peptides have any effect on virus release. 293T cells were transfected with the full-length HIV-1 molecular clone pNL4-3, treated with stapled peptides for 16–20 h, and metabolically labeled with [^35S]Met/Cys. The cell- and virus-associated proteins were immunoprecipitated with HIV-Ig.
Figure 6 i + 7 stapled peptides have no effect on HIV-1 release, but impair Gag processing. […] Cells were metabolically labeled with [^35S]Met/Cys for 2 h. Cells were lysed and virions were collected by ultracentrifugation. Cell and virus lysates were immunoprecipitated with HIV-Ig and subjected to SDS-PAGE. Protein band intensities were quantified by phosphorimager analysis, and HIV-1 release was calculated as the amount of virion-associated p24 relative to total (cell- plus virion-associated) Gag. (b) Accumulation of unprocessed Gag in cells was measured by calculating the ratio of Pr55^Gag to p24 in cells. P values were calculated by Student’s t-test, with P < 0.05 considered significant. N = 3, ± SD.
293T cells, plated at 3 × 10^5 cells/well in 12 well plates, were transfected with the HIV-1 molecular clone pNL4-3 [69]. […] One day posttransfection, cells were metabolically labeled with [^35S]Met/Cys for 2 h. The labeled virions were pelleted in an ultracentrifuge, and the virus and cell lysates were immunoprecipitated with pooled sera from HIV-1-infected patients (HIV-Ig, obtained from the ARP) and subjected to SDS-PAGE. Protein band intensities were quantified by phosphorimager analysis, and virus release was calculated as the amount of virion-associated Gag as a fraction of total (cell- plus virion-associated) Gag synthesized during the metabolic labeling period. Accumulation of Pr55^Gag in cells was measured by calculating the ratio of Pr55^Gag to p24 (CA).

[2] = test system: HIV-1 V120Q/A327P Env mutant; format: cell-based
WT NL4-3 [3] = experiment: Virus replication in PBMC, WT; format: cell-based, HIV-1; conditions: PBMC from three donors, 30 μM peptide, RT activity
WT NL4-3 [4] = experiment: Spreading virus replication in Jurkat T-cell line, RT activity, WT; format: cell-based, HIV-1
WT HIV-1 (NL4-3) = format: cell-based
HIV-1 CA [5] = biological target: T1, HIV-1 CA (Human immunodeficiency virus type 1 group M subtype B, UniProt P12493); experiment: In vitro CA assembly, negative-stain electron microscopy; format: biochemical; conditions: 50 μΜ CA, 0.25- to 3.0-fold molar equivalent of peptide
T1 construct: Wild-type HIV-1 CA was overexpressed and purified as previously described; made in house
Method: Briefly, stock proteins were adjusted to the appropriate concentration (25 μΜ for Gag protein or 50 μΜ for CA protein) with the Na2HPO4 buffer at pH 8.0. […] Negative staining was used to check the assembly. Carbon-coated copper grids (200 mesh size; EM Sciences) were treated with 20 μl of poly-L-lysine (1 mg/ml; Sigma) for 2 min. 20 μl of reaction solution was placed onto the grid for 2 min. Spotted grids were then stained with 30 μl of uranyl acetate solution for 2 min. Excess stain was removed, and grids were air-dried. Specimens were examined with a TECNAI G^2 electron microscope (FEI, OR, USA).

HIV-1 CA [6] = biological target: T1, HIV-1 CA; experiment: Turbidity-based in vitro CA assembly assay; format: biochemical; conditions: turbidity at 350 nm
Method: The ability of stapled peptides to disrupt CA-CA interactions was also assessed using a turbidity-based in vitro CA assembly assay. This assay is based on the observation that the turbidity of a CA-containing solution increases in proportion to the extent of assembly.
Wild-type HIV-1 CA was overexpressed and purified as previously described. […] Turbidity assays were carried out in triplicate using a Beckman spectrophotometer at a wavelength of 350 nm to monitor HIV-1 in vitro assembly conducted at ambient temperatures. Protein samples were prepared in an assembly buffer [50 mM NaPO4 pH 8.0]. In vitro assembly reactions were prepared with 250 μl of assembly buffer containing 60 μM protein. To catalyze CA assembly 250 μl of an assembly buffer containing 5M NaCl was added. The solution was mixed by agitation and transferred a cuvette for a total delay of 20 seconds. Assembly was monitored every 10 sec for the first min and every min thereafter for a total 10 min. Assembly reactions with stapled peptides were incubated in the assembly buffer for 10 min and then centrifuged for 1 min to separate any insoluble fractions before catalyzing assembly.

V120Q/A327P mutant = experiment: Virus replication in PBMC, Env mutant; format: cell-based, HIV-1; conditions: PBMC from three donors, 30 μM peptide, RT activity
[7] = biological target: tip of V3 loop (15-mer V3 tip peptide); experiment: ITC binding to 15-mer V3 tip peptide; set-up: species or system HIV-1; conditions: 90 μM 15-mer V3 tip peptide titrated into 4.5 μM peptide, single-site model
Method: as §1, §2, §3

[8] = not told; cited from earlier work
From the text: In 2005, a 12-mer peptide (CAI), identified by phage-display, was reported to disrupt both immature- and mature-like particles in vitro by targeting the C-terminal domain (CTD) of HIV-1 CA [21]. […] Subsequently, we converted CAI to a cell-penetrating peptide (NYAD-1) by using a hydrocarbon stapling technique and confirmed its binding to the CTD [24]. NYAD-1, which is an i,i + 4 staple peptide, disrupts the formation of both immature- and mature-like particles in cell-free and cell-based assembly s ... || We previously reported that an i,i + 4 stapled peptide, NYAD-1, penetrates cells and disrupts virus assembly in both in vitro and cell-based assays. […] In addition, direct binding analyses by ITC and NMR confirmed that NYAD-1 binds to the CTD of CA. These findings motivated us to expand the scope of our drug discovery effort on hydrocarbon-stapled peptides as assembly and maturation inhibitors to an i,i + 7 series of stapled peptides. This approach allowed us to explore res ...

Molecule | binding to N-terminal and C-terminal V3 loop peptides (in words) [1] | reduction in infectivity of virions produced from treated cells (HIV-1 pNL4-3 (WT)) | Accumulation of cell-associated Pr55Gag (in words) (HIV-1 pNL4-3) | fold reduction of virus infectivity, V120Q/A327P double mutant [2] | virus replication (in words) (WT NL4-3 [3]) | Cell penetration (in words) (293T cells) | virus replication (in words) (WT NL4-3 [4]; Jurkat cells transfected with pNL4-3 (WT), 37.5 μM peptide) | virus replication (in words) (WT NL4-3 [4]; Jurkat cells transfected with pNL4-3, 25 μM peptide) | virus replication (in words) (WT NL4-3 [4]; Jurkat cells transfected with pNL4-3, 50 μM peptide) | CC 50 (μM ± SD) in MT-2 (MT-2 cells) [µM] | fold reduction of virus infectivity, WT (WT HIV-1 (NL4-3)) [fold] | Effect on CA tube assembly, EM (in words) (HIV-1 CA [5]) | Effect on CA assembly, turbidity (in words) (HIV-1 CA [6]; 50 mM NaPO4 pH 8.0) | initial rate of CA assembly (HIV-1 CA [6]; compound:CA ratio 2:1, mean ± standard deviation from three experiments, DMSO control 216 ± 6.23) [mOD/min] | virus replication (in words) (V120Q/A327P mutant) | Kd [7] [µM] | cell permeability (in words) [8]
CC[C@H](C)[C@H](NC(C)=O)C(=O)N[C@@H](CO)C(=O)N[C@@H](Cc1ccccc1)C(=O)N[C@]1(C)CCCCCCC=CCCC[C@@](C)(C(=O)N[C@@H](CCC(=O)O)C(=O)N[C@@H](CO)C(=O)NCC(=O)N[C@@H](CO)C(N)=O)NC(=O)[C@H](Cc2ccc(O)cc2)NC(=O)[C@H](Cc2ccc(O)cc2)NC(=O)[C@H](CC(=O)O)NC(=O)[C@H](CC(C)C)NC(=O)[C@H](CC(C)C)NC(=O)[C@H](CCC(=O)O)NC1=O [NYAD-36] (Ac-ISF[R8]ELLDYY[S5]ESGS-NH2; staple 4-11) | neither N-terminal nor C-terminal V3 loop peptides bind | four-fold | modest accumulation of cell-associated Pr55^Gag | ~ 2.5 fold | strongly inhibited replication of WT NL4-3 in PBMC | penetrate cells less efficiently than NYAD-1 | significantly delayed | virus replication peaked approximately six days posttransfection | no replication was detected | >189.4 | > 10 | either severely damaged or disintegrated | reduced the extent of CA assembly in a dose-dependent manner | 158 ± 24.71 | showed some antiviral activity against the V120Q/A327P mutant | 15.1 ± 3.78 | 
ITFEDLLDYYGP-NH2 [CAI, reference compound] |  |  |  |  |  |  |  |  |  | >100 |  |  |  |  |  |  | lack of cell permeability

Source: article PMC3842668, “Dual-acting stapled peptides target both HIV-1 entry and assembly” (Retrovirology, 2013)
